Assay results reported in patent US8785486B2, “Imidazo[1,2-A]pyridine derivatives and their use as positive allosteric modulators of mGluR2 receptors” (Janssen Pharmaceuticals, Inc., priority 2007, dated 2014).

How the values were obtained:
human mGluR2 receptor = molecular target: T1, human mGluR2 receptor (Homo sapiens, UniProt Q14416); assay: [35S]GTPγS binding assay (PAM assay) using membranes from cells transfected with the human mGluR2 receptor; type: biochemical; conditions: membranes of CHO cells with human mGluR2; glutamate at predetermined EC25 concentration; averages of duplicate values of 11-concentration response curves; read-out: GTPγS - hR2 PAM pEC50 (converted)
T1 construct: expressed in transfected cells; host or cells: CHO cells
T1 sequence (Q14416 19-872): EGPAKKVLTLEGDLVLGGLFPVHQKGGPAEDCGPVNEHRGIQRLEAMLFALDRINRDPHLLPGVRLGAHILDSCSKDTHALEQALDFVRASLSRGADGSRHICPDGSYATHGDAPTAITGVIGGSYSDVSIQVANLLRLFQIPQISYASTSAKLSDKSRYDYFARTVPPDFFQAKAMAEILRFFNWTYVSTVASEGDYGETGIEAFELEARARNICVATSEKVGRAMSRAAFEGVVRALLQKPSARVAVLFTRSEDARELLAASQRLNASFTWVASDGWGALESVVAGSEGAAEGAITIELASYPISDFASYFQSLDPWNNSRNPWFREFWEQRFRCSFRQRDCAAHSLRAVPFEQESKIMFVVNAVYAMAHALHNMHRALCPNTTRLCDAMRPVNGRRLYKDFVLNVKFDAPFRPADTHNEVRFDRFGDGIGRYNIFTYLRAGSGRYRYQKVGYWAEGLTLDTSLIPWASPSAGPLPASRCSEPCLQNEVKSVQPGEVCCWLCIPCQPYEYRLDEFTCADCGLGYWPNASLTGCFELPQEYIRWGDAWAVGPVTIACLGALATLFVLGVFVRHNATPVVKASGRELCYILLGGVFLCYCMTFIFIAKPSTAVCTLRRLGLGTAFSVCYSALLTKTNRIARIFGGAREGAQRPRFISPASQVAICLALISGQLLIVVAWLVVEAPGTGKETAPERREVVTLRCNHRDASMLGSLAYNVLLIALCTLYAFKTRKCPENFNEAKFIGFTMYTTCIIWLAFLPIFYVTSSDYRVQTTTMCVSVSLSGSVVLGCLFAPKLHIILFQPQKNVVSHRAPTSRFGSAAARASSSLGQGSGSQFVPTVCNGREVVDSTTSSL

| SMILES | melting point | EC50 (human mGluR2 receptor) |
| --- | --- | --- |
| N#Cc1c(-c2ccc(COc3cccc(F)c3)cc2)ccn2c(CC(F)(F)F)cnc12 [Example 114] | 207.1 °C | 141 nM |
| N#Cc1c(N2CCC3(CCc4ccccc4O3)CC2)ccn2c(CC(F)(F)F)cnc12 [Example 115] | 198.7 °C | 214 nM |
| N#Cc1c(N2CCc3c(oc4ccccc34)C2)ccn2c(CC(F)(F)F)cnc12 [Example 116] | 252.5 °C | 174 nM |
